Measured values published in ChEMBL document CHEMBL1201862, “PubChem BioAssay data set” (2004).
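Dose response: 5 concentrations. Exposure: 48 h. Format: 96-well plates. Endpoint: linear interpolation; highest concentration if not reached. The concentration for 50% growth inhibition is given as GI50.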 Active and inactive are the calls of the source. No stated cut-off is given here; in the data, active = GI50 up to about 1.1 µM and inactive = higher.

How the values were obtained:
Experiment in all cases: growth of human tumour cells (NCI), 48 h
[1] = system: DLD-1
[2] = system: DMS-273
[3] = system: HOP-18
[4] = system: KM-20L2
[5] = system: LXFL 529
[6] = system: SNB-78
[7] = system: XF498
[8] = system: DMS-114
[9] = system: RXF 631

Structure (SMILES)	GI50 [1]	GI50 [2]	GI50 [3]	GI50 [4]	GI50 [5]	GI50 [6]	GI50 [7]	GI50 [8]	GI50 [9]
Nc1nc(O)c([N+](=O)[O-])c(NCCOCP(=O)(O)O)n1	> 100 µM (inactive)	> 100 µM (inactive)	> 100 µM (inactive)	> 100 µM (inactive)	> 100 µM (inactive)	> 100 µM (inactive)	> 100 µM (inactive)	–	–
CN(C)CC1CC/C(=C\c2ccc(O)cc2)C1=O (centres undefined)	2.58 µM (inactive)	3.3 µM (inactive)	6.35 µM (inactive)	9.55 µM (inactive)	1.85 µM (inactive)	11.4 µM (inactive)	5.82 µM (inactive)	10 µM (inactive)	–
C/C(=N\N=C(/S)N(C)C)c1cccc[n+]1[O-]	2.18 µM (inactive)	12.5 µM (inactive)	> 100 µM (inactive)	5.61 µM (inactive)	0.466 µM (active)	> 100 µM (inactive)	–	0.482 µM (active)	> 100 µM (inactive)
O=C1C=C(Br)C(=O)C12CCc1ccccc12 (centres undefined)	9.48 µM (inactive)	18.3 µM (inactive)	7.53 µM (inactive)	26.7 µM (inactive)	4.45 µM (inactive)	22.6 µM (inactive)	15.3 µM (inactive)	20.7 µM (inactive)	–
O=c1[nH]c(=O)n(C2CC(O)C(CO)O2)cc1COCC(F)(F)F (centres undefined)	> 100 µM (inactive)	> 100 µM (inactive)	–	> 100 µM (inactive)	> 100 µM (inactive)	> 100 µM (inactive)	> 100 µM (inactive)	> 100 µM (inactive)	> 100 µM (inactive)
c1ccc(SCCCC(Sc2ccccc2)Sc2ccccc2)cc1	> 100 µM (inactive)	> 100 µM (inactive)	–	> 100 µM (inactive)	> 100 µM (inactive)	> 100 µM (inactive)	> 100 µM (inactive)	> 100 µM (inactive)	–
S=P(N1CCCC1)(N1CC1)N1CC1	> 100 µM (inactive)	> 100 µM (inactive)	> 100 µM (inactive)	> 100 µM (inactive)	–	> 100 µM (inactive)	> 100 µM (inactive)	99.5 µM (inactive)	–
C/C(CN1C(=O)c2ccccc2C1=O)=N\NS(=O)(=O)c1ccc(Br)cc1	> 100 µM (inactive)	> 100 µM (inactive)	> 100 µM (inactive)	> 100 µM (inactive)	> 100 µM (inactive)	> 100 µM (inactive)	–	10.9 µM (inactive)	–
CC(C)(C)/N=C1/CC(C)(C)c2ccccc2/C(=N\c2ccccc2)S1	26.3 µM (inactive)	32.1 µM (inactive)	–	31.8 µM (inactive)	29.9 µM (inactive)	41.5 µM (inactive)	21.1 µM (inactive)	26.7 µM (inactive)	–
NC(Cc1ccc2oc3cc(=O)c4ccccc4c-3nc2c1)C(=O)O (centres undefined)	34.8 µM (inactive)	22.4 µM (inactive)	25.8 µM (inactive)	39.2 µM (inactive)	55.5 µM (inactive)	> 100 µM (inactive)	–	13.9 µM (inactive)	–
O=C1C[C@H]2CC3(CC[C@H]2CN1)OCCO3	> 100 µM (inactive)	> 100 µM (inactive)	–	–	> 100 µM (inactive)	> 100 µM (inactive)	> 100 µM (inactive)	–	–
CCP(C)(=O)CC	> 100 µM (inactive)	> 100 µM (inactive)	> 100 µM (inactive)	> 100 µM (inactive)	> 100 µM (inactive)	> 100 µM (inactive)	> 100 µM (inactive)	> 100 µM (inactive)	> 100 µM (inactive)
CC(C)C(Sc1nc(-c2ccccc2)c(-c2ccccc2)[nH]1)C(=O)N/N=C/c1ccc(Cl)cc1 (centres undefined)	36.1 µM (inactive)	18.2 µM (inactive)	–	20.6 µM (inactive)	32.1 µM (inactive)	28.7 µM (inactive)	–	24.3 µM (inactive)	–
C#CCOCn1cnc2c(N)ncnc21	> 100 µM (inactive)	> 100 µM (inactive)	> 100 µM (inactive)	> 100 µM (inactive)	> 100 µM (inactive)	> 100 µM (inactive)	> 100 µM (inactive)	> 100 µM (inactive)	> 100 µM (inactive)
O=C(c1ccc([N+](=O)[O-])cc1[N+](=O)[O-])N(/N=C/C=C/c1ccccc1)c1nnc(-c2ccccc2)c(-c2ccccc2)n1	34.8 µM (inactive)	23.7 µM (inactive)	–	> 100 µM (inactive)	–	–	17.6 µM (inactive)	29.2 µM (inactive)	–
O=C(/C=N/O)Nc1cccc(Cl)c1I	63.4 µM (inactive)	> 100 µM (inactive)	–	> 100 µM (inactive)	25 µM (inactive)	–	46.3 µM (inactive)	23.3 µM (inactive)	–
N#CC(NNC(=O)c1ccccc1O)c1ccc(O)cc1 (centres undefined)	–	3.32 µM (inactive)	9.1 µM (inactive)	23.4 µM (inactive)	4.06 µM (inactive)	–	–	2.3 µM (inactive)	–
O=C(CC(=O)n1nc(-c2ccccc2)c(/N=N/c2ccccc2Cl)c1-c1ccccc1)Nc1ccc(Cl)cc1	> 43.6 µM (inactive)	> 64.3 µM (inactive)	> 100 µM (inactive)	> 57.3 µM (inactive)	> 100 µM (inactive)	–	> 100 µM (inactive)	> 41.7 µM (inactive)	–
Cc1ccc(C2=C(c3ccccc3)C(Br)(c3ccccc3)C(c3ccccc3)=C2c2ccc(C)cc2)cc1	> 100 µM (inactive)	–	> 100 µM (inactive)	> 100 µM (inactive)	> 100 µM (inactive)	> 100 µM (inactive)	> 100 µM (inactive)	> 100 µM (inactive)	–
COc1ccc(Cc2cc(OC)c(OC)c(OC)c2)cc1	0.33 µM (active)	0.104 µM (active)	–	0.181 µM (active)	0.541 µM (active)	3.34 µM (inactive)	–	–	–
CN(CO)c1nc(N(C)CO)nc(N(C)CO)n1 [TRIMELAMOL]	10.2 µM (inactive)	7.6 µM (inactive)	18.8 µM (inactive)	8.85 µM (inactive)	–	9.77 µM (inactive)	5.75 µM (inactive)	–	–
